Experimental data from paper PMC12535076, “Neurotherapeutic effects of Vutiglabridin as a Paraoxonase-2 modulator in preclinical models of Parkinson’s disease” (Molecular Neurodegeneration, 2025).

Experiments:
MAO-B = target: T1, MAO-B (Homo sapiens, UniProt P27338); assay: ROS Glo based MAO-B enzyme activity assay; type: biochemical; settings: read-out: IC50, MAO-B assay, ROS-Glo method
T1 sequence (P27338 1-520): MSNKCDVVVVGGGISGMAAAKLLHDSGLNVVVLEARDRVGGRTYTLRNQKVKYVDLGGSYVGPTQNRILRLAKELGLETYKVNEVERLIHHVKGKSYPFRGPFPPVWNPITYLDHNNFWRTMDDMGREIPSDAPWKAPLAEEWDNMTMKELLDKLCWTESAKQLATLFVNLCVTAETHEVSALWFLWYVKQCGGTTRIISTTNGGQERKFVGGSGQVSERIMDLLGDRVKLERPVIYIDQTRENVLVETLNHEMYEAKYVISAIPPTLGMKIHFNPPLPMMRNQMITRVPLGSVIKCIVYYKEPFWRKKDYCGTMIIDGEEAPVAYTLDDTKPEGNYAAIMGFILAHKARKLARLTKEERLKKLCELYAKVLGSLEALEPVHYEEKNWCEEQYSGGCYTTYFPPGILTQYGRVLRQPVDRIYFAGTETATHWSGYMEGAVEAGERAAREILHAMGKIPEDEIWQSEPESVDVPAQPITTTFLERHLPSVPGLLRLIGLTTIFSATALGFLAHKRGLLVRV
Description: An enzyme solution was prepared by diluting 10 µL of a 2.5 mg/mL MAO-A or MAO-B stock in 10 mL of 50 mM sodium phosphate buffer (pH 7.4). A substrate solution was prepared by diluting 200 µL of a 100 mM benzylamine (or tyramine) stock in 10 mL phosphate buffer to achieve a final concentration of 1 mM. For each 96-well plate experiment, 12.5 µL of a 1× H2O2 probe solution was added to 1 mL of the probe dilution buffer from the ROS Glo™ kit. Separately, 40 µL of cysteine and enhancer were diluted into 4 mL of Luciferin solution. In each well, 49 µL of the enzyme solution was dispensed, followed by 1 µL of the test compound, and incubated for 30 min. […] Next, 10 µL of the H2O2 probe solution was added and incubated for 15 min. […] Luminescence was subsequently recorded using a microplate luminescence reader (SpectraMax i3, Molecular Devices).

shPON2-SH-SY5Y cells = assay: Mitochondrial activity in PON2 knockdown (shPON2) and shSCR SH-SY5Y cells treated with MPP+; type: cell-based, human
Description: Human SH-SY5Y neuroblastoma cells (ATCC® (CRL-2266™; Manassas, VA, USA) were first cultured in Dulbecco’s Modified Eagle Medium (DMEM)/F12 supplemented with 10% fetal bovine serum (FBS), 100 U/mL penicillin, and 100 µg/mL streptomycin (complete media, CM) at 37 °C with 5% CO2. Cells (5 × 10^4 cells/well) then were cultured in 96-well plates for 24 h followed by incubation in serum-deficient media (SDM, culture media containing 0.5% FBS) for 16 h. Quiescent cells in SDM were incubated with 1 mM MPP^+ or dimethyl sulfoxide (DMSO) vehicle for 24 h, then treated with Vuti at the designated doses for 24 h. The treated cells were harvested according to the purpose and analyzed.
Lentiviral PON2 shRNA (h) (sc-62838) was purchased from Santa Cruz Co. (Santa Cruz, CA, USA). shRNA lentiviral particle transduction was performed according to the manufacturer’s protocol. Total RNA was isolated with a Trizol reagent (Invitrogen, Carlsbad, CA, USA). […] PON2 knockdown was verified by quantitative PCR, and the primers and methods used are described in the supplementary material.
A systemic cell-based mitochondrial function analysis system was established using SH-SY5Y cells in 96-well plates based on fluorescence detection methods as described previously. The assay system covers quantitative assays for methyl thiazyl tetrazolium-mitochondrial dehydrogenase activity (MTT), TMRE-based mitochondrial membrane potential (TMRE), ATP contents, and ROS of cells. […] Fluorescence intensities at 550 nm/580 nm for TMRE, at 510 nm/580 nm MitoSOX, or at 494 nm/522 nm for DCF-DA were normalized by Hoechst intensity at 355 nm/480 nm (Spectramax Gemini EM, Molecular Devices, Sunnyvale, CA, USA).
Endogenous OCR was measured in adherent SH-SY5Y cells using a Seahorse XF-24 Analyzer (Seahorse Bioscience, Billerica, MA, USA) following the manufacturer’s protocol with minor modifications. […] The OCR was calculated from 3-min measurement cycles and normalized to cell number.

[1] = tested on: SH-SY5Y human neuroblastoma cells; assay: Cell-based mitochondrial activity assays in MPP+-treated SH-SY5Y cells
Description: Human SH-SY5Y neuroblastoma cells (ATCC® (CRL-2266™; Manassas, VA, USA) were first cultured in Dulbecco’s Modified Eagle Medium (DMEM)/F12 supplemented with 10% fetal bovine serum (FBS), 100 U/mL penicillin, and 100 µg/mL streptomycin (complete media, CM) at 37 °C with 5% CO2. Cells (5 × 10^4 cells/well) then were cultured in 96-well plates for 24 h followed by incubation in serum-deficient media (SDM, culture media containing 0.5% FBS) for 16 h. […] The treated cells were harvested according to the purpose and analyzed.
A systemic cell-based mitochondrial function analysis system was established using SH-SY5Y cells in 96-well plates based on fluorescence detection methods as described previously. The assay system covers quantitative assays for methyl thiazyl tetrazolium-mitochondrial dehydrogenase activity (MTT), TMRE-based mitochondrial membrane potential (TMRE), ATP contents, and ROS of cells. Cells in black 96-well culture plate were incubated with 200 nM TMRE and 0.5 µM Hoechst 33,342 for 30 min at 37 °C in phenol red-free SDM, or with 1 µM CM-H2DCFDA or 5 µM MitoSOX and 0.5 µM Hoechst 33,342 for 1 h at 37 °C. Fluorescence intensities at 550 nm/580 nm for TMRE, at 510 nm/580 nm MitoSOX, or at 494 nm/522 nm for DCF-DA were normalized by Hoechst intensity at 355 nm/480 nm (Spectramax Gemini EM, Molecular Devices, Sunnyvale, CA, USA).
Endogenous OCR was measured in adherent SH-SY5Y cells using a Seahorse XF-24 Analyzer (Seahorse Bioscience, Billerica, MA, USA) following the manufacturer’s protocol with minor modifications. Briefly, OCR assays were performed using SH-SY5Y cells (5.0 × 10^3 cells/well) equilibrated in DMEM without sodium bicarbonate in XF-24 microplates. After measuring basal OCR for 3 min, oligomycin (1 µg/mL), carbonyl cyanide-p-trifluoromethoxyphenylhydrazone (FCCP) (0.3 µM), and rotenone (0.1 µM) were consecutively added into each well to reach their final working concentrations. The OCR was calculated from 3-min measurement cycles and normalized to cell number.

## CCOc1ccc(C2COc3c(ccc4c3CCC(C)(C)O4)C2)c(O)c1 (centres unmarked) [Vuti, Vutiglabridin]
MAO-B
  IC50: 58.3 µM
shPON2-SH-SY5Y cells; control scrambled shRNA cells, 1 mM MPP+ then 1 nM Vuti
  MPP+-induced mitochondrial damages in shSCR cells: significantly restored
shPON2-SH-SY5Y cells; shPON2 cells, 1 mM MPP+ 20 h then 1 nM Vuti 24 h
  OCR (basal respiration, ATP turnover rate, maximum respiratory capacity) in shPON2 cells: failed to restore
shPON2-SH-SY5Y cells; shPON2 infected cells, 1 mM MPP+ 20 h then 1 nM Vuti 24 h
  effects on mitochondria function (MTT, ATP content, TMRE, DCF-DA-ROS, MitoSOX-ROS) in shPON2 cells: considerably reduced or almost completely abolished
[1]; 1 mM MPP+ 20 h, then Vuti 1~100 nM 24 h, Seahorse XF-24
  MPP+-induced reduction in OCR (basal respiration, ATP turnover rate, maximum respiratory capacity): dose-dependently and significantly rescued
[1]; 1 mM MPP+ 24 h, then Vuti 0~1 µM 24 h
  MPP+-induced mitochondrial damage (NADH dehydrogenase complex 1 activity, ATP content, DCF-DA ROS, MitoSOX superoxide): significantly reversed
[1]; 1 mM MPP+, post-treatment with Vuti
  ATP production rates through glycolysis (GlycoATP) and mitochondria (mitoATP): normalized
[1]; SH-SY5Y, 1 mM MPP+
  concentration at which significant restoration of MPP+-induced damage was observed: 1 nM
